This data set in a line: gradient 5% acetonitrile 3 min, to 50% in 2 min, to 85% in 15 min, held 3 min, 100 µL/min. To be noted: column: Zorbax Extend-C18 2.1 x 50 mm; eluents: water / acetonitrile, 0.1% formic acid. The method in brief: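 The system's dead and dwell volumes were 40 μL and 900 μL, with a Zorbax Extend-C18 column (2.1 × 50 mm, 1.8 μm) run at 100 μL/min in water and acetonitrile containing 0.1% formic acid each. Pure standards were analyzed in mixtures of ~100 molecules by HPLC–quadrupole time-of-flight mass spectrometry in positive and negative ionization mode. Retention time was assigned from computationally picked, manually inspected adduct peaks.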
Take `O=C(Nc1cccc(OCc2nnc(-c3ccccc3)o2)c1)c1ccccn1`: the RP-LC retention time was 954 s.
The same measure for `O=C(Nc1c(-c2ccc(F)cc2)nc2ccccn12)c1cccc([N+](=O)[O-])c1`: 684 s; for `COc1ccc(C(=O)Nc2nc(-c3ccc4c(c3)N(C)C(=O)C(C)O4)cs2)cc1OC` (configuration not stated): 932 s; for `O=C(Nc1cccc(-c2nnc3n2CCCC3)c1)c1nccc2ccccc12`: 769 s.
The same measure for `Cc1cc(-c2csc(S(=O)(=O)N3CCN(C(c4ccccc4)c4ccccc4)CC3)c2)on1`: 1200 s; for `O=C1CN(Cc2ccc(OC(F)(F)F)cc2)C2(CCCC2)CN1`: 682 s.
To `COc1ccc(-c2cc3nn(CC(=O)Nc4ccc(F)c(Cl)c4)c(=O)n3c(C)n2)cc1` belongs 992 s.
For `COc1ccc(Cl)cc1NC(=O)NCCCn1c(C(F)(F)F)nc2cccnc21`, the RP-LC retention time was found to be 890 s.
The same measure for `O=C(c1ccccn1)N1CCCCC1c1nc(-c2cnccn2)no1` (configuration not stated): 637 s; for `O=C(NCc1cccc(F)c1)c1cn2ccncc2n1`: 672 s.
To `Cc1ccc(NC(=O)N2CCC(N3CCN(Cc4ccccc4)C3=O)CC2)cc1F` belongs 872 s; to `COCCCNc1nc(-c2ccc(OC)cc2)nc2ccccc12`, 690 s.
As to `O=C(O)CSc1c(-c2ccccc2)c2cc(Cl)ccc2[nH]c1=O`, the RP-LC retention time turned out to be 806 s.
Compound `CCCNC(=O)C1CCN(c2nc3ccc(-c4cccnc4)nc3s2)CC1` yielded an RP-LC retention time of 604 s.
The compound `CCOC(=O)c1cc(S(=O)(=O)N2CCCC2C(=O)Nc2cccc(F)c2)cn1C` (configuration not stated) registered an RP-LC retention time of 938 s.
Consider `COc1ccc(CNC(=O)C2CCCN(c3nc4c(s3)c(C)nn4-c3ccc(Cl)cc3)C2)cc1` (configuration not stated), for which the RP-LC retention time was determined as 1200 s.
Compound `CC(=O)Nc1ccc(S(=O)(=O)Nc2ccc3c(c2)CCC(=O)N3C)cc1` displayed an RP-LC retention time of 604 s.
Compound `Cc1ccc(Cn2cc(-c3nc(-c4ccc(Cl)cc4)no3)ccc2=O)cc1` gave an RP-LC retention time of 1250 s.
To `COc1ccc2[nH]cc(CCNC(=O)c3ccc(SC)cc3OC)c2c1` belongs 865 s; to `Cc1cc(C)cc(Nc2c(-c3cccc(O)c3)nc3ncccn23)c1`, 719 s.
To `Cc1ccc(C)c(S(=O)(=O)N2CC(c3noc(C)n3)C3(CCOCC3)C2)c1` (configuration not stated) belongs 929 s.
To `Cc1ccc(NC(=O)Cn2nc(N3CCOCC3)c3ccccc3c2=O)cc1F` belongs 836 s.
Take `Cc1cccc(-n2c(N3CCCC(C(=O)NCc4ccc(C)c(C)c4)C3)nc3ccsc3c2=O)c1` (configuration not stated): the RP-LC retention time was 1020 s.
To `CC(C)Cn1c(=O)c(N2CCN(C(=O)NCCc3ccccc3)CC2)nc2ccncc21` belongs 668 s; to `CC1(C)C(=O)N(CC(=O)Nc2ccccc2F)c2ccccc21`, 869 s.
`Cc1ccc(NC(=O)N2CCC(N(C(=O)C3CC3)C3CCOCC3)CC2)c(C)c1` gave an RP-LC retention time of 722 s.
As to `CCN(Cc1ccccc1)C(=O)Cn1c(N2CCCC2)nc(C)cc1=O`, the RP-LC retention time was found to be 660 s.
The same measure for `Cc1ccc(-n2c(N3CCCC(C(=O)NC(C)c4ccc(F)cc4)C3)nc3ccsc3c2=O)cc1` (configuration not stated): 959 s.
The same measure for `Cc1cccc(NC(=O)N2CCCC2c2nc(-c3cccc(C)c3)no2)c1` (configuration not stated): 598 s; for `Cc1nc(-c2cccnc2)nc2c1CCC(=O)N2Cc1ccco1`: 681 s.
Turning to `Cc1ccc(NC(=O)CN2CCc3[nH]c4c(C)c(Cl)ccc4c(=O)c3C2)c(Cl)c1`, the RP-LC retention time came out at 741 s.
To `O=C(NCc1csc(C2CCCN(C(=O)c3ccc(F)cc3Cl)C2)n1)C1CC1` (configuration not stated) belongs 756 s; to `Cc1c(F)cccc1NC(=O)N1CCCC1c1nncn1-c1ccccc1` (configuration not stated), 744 s; to `O=C(NCC1CN(c2ccc3c(c2)OCO3)C(=O)O1)c1ccccc1C(F)(F)F` (configuration not stated), 880 s.
To `Cc1cc(C)cc(C(=O)N2C[C@@H]3C[C@H](NC(=O)c4cccnc4)[C@H]2C3)c1` belongs 658 s; to `CCS(=O)(=O)N1CCc2ccc(NC(=O)COc3ccc(Cl)cc3Cl)cc2C1`, 964 s.
To `COc1ccc(C(=O)N2CCN(c3ccc(-c4nc(C)cs4)cn3)CC2)cc1F` belongs 819 s.
The compound `O=S(=O)(c1ccc(F)cc1)N1CCC2(CC1)NCCN=C2NCc1ccc(Cl)cc1` came in with an RP-LC retention time of 722 s.
To `CCOc1ccc(CCNC(=O)c2sc(-c3cccn3CC)nc2C)cc1OCC` belongs 1140 s.
To `Cc1cc(Cl)ccc1S(=O)(=O)N1CCC(OCc2noc(C3CCCO3)n2)CC1` (configuration not stated) belongs 1030 s.
To `CCOCCCNC(=O)c1ccc(OCc2nnc(C(=O)Nc3ccc(F)c(F)c3)s2)cc1` belongs 912 s; to `CCCn1cnc2ccc(-c3noc(C4CC(=O)N(c5ccc(C)cc5)C4)n3)cc21` (configuration not stated), 735 s; to `O=C(CSc1ccc(N2CCCC(C(=O)NC3CC3)C2)nn1)NCc1ccc(C(F)(F)F)cc1` (configuration not stated), 694 s.
On to `CC(C)CN1CCn2cc(S(=O)(=O)Nc3ccc(Cl)cc3F)cc2C1=O`, for which the RP-LC retention time turned out to be 858 s.
`COC(=O)c1ncn2c1C(=O)N(c1ccc(C(C)C)cc1)C(C)(C(=O)NC1CCCC1)C2` (configuration not stated) had an RP-LC retention time of 817 s.
To `CCC(CC)C(=O)N1CCc2c(c(C(=O)N3CCCC(C(=O)Nc4ccccc4)C3)nn2C)C1` (configuration not stated) belongs 761 s; to `CCN1CCN(c2nc(F)c3c(c2F)S(=O)(=O)CCN3CCOC)CC1`, 581 s; to `O=C(CCn1cnc2cc(-c3noc(-c4ccc(Br)o4)n3)ccc21)N1CCCCC1`, 796 s.
`CCc1cccc(NC(=O)Cn2nc3n(c2=O)CCCCC3)c1` showed an RP-LC retention time of 722 s.
The same measure for `COc1ccc(S(=O)(=O)N2CCCOC2CNC(=O)C(=O)NC2CCCCC2)cc1` (configuration not stated): 822 s.
The same measure for `CCOC(=O)c1csc(NC(=O)c2ccccc2[N+](=O)[O-])n1`: 721 s; for `Cc1nnc2ccc(-c3noc(-c4ccc5c(c4)OCO5)n3)cn12`: 871 s; for `CCOc1ccc(NC(=O)Cn2c(N3CCOCC3)nc(C)cc2=O)cc1`: 654 s.
The same measure for `COc1ccc(N2CC(c3noc(-c4cccc(Cl)c4)n3)CC2=O)cc1` (configuration not stated): 1030 s; for `O=C(c1ccncc1)N1CCc2cc(-c3csc(C4CC4)n3)ccc21`: 848 s; for `COc1cc(NC(=O)N2CCCN(c3ccc(=O)n(-c4ccccc4)n3)CC2)cc(OC)c1OC`: 694 s.
On to `O=C(NCc1ccccc1Cl)C1COCC(=O)N1Cc1ccccc1` (configuration not stated), for which the RP-LC retention time is 724 s.
To `CCOc1ccc(S(=O)(=O)N2CCC(c3nc(C(=O)N4CCCC4)c(C)o3)CC2)cc1` belongs 941 s; to `COc1cc(OC)cc(-c2nnc(Cc3nc(-c4ccc5c(c4)OCO5)no3)o2)c1`, 978 s; to `CC(=O)N1CCCC1c1nc2ccccc2n1CC(=O)N1CCCCC1` (configuration not stated), 594 s.
The same measure for `Cc1ccc(-c2cn3cccc(C)c3n2)cc1NS(=O)(=O)c1ccccc1`: 672 s; for `COc1cc(NC(=O)NCC(c2cccn2C)N2CCOCC2)cc(OC)c1` (configuration not stated): 563 s.
The same measure for `CC(C)Cc1nc(N2CCNCC2)c(C#N)c2c1COC(C)(C)C2`: 683 s; for `CC(NC(=O)c1ccco1)c1nc(-c2ccc(N3CCOCC3)cc2)no1` (configuration not stated): 757 s; for `CC(CC(=O)N1CCN(Cc2ccccc2)CC1)S(=O)(=O)c1ccc2c(c1)CCN2C(=O)C1CC1` (configuration not stated): 656 s.
With `COc1c(C(=O)NCCN2CCC(C)CC2)sc2ccc(Cl)cc12`, the RP-LC retention time stood at 710 s.
To `COc1ccc(CCc2nc(-c3ccc4c(c3)nc(C)c(=O)n4C)no2)cc1` belongs 946 s; to `COc1ccc(C)cc1NC(=O)C1CCN(S(=O)(=O)c2cn(C(C)C)cn2)CC1`, 810 s.
The same measure for `O=C(NCc1ccc(F)cc1)Nc1cccn2ncnc12`: 718 s; for `COC[C@@H]1CN(S(=O)(=O)c2cccnc2)C[C@H]1c1ccncc1`: 652 s; for `O=[N+]([O-])c1c(NCCCO)cc(N2CCN(c3ccccn3)CC2)c2nonc12`: 584 s.
The same measure for `CCN1CCN(c2cc(C)c3cc(NC(=S)N4CCN(c5ccccc5)CC4)ccc3n2)CC1`: 603 s; for `Cc1csc(-c2ccc(N3CCN(C(=O)COc4ccc(Cl)cc4)CC3)nc2)n1`: 925 s; for `O=C(c1cn2c(n1)CCCC2)N1CCN(c2ccc(Cl)cc2)CC1`: 648 s.
Regarding `Cn1nc(CN(C(=O)c2ccc(F)cc2)c2ccccc2)c2c1CCN(S(C)(=O)=O)C2`, the RP-LC retention time was found to be 721 s.
To `COc1cccc(CNC(=O)C2(C)CCCN(C(=O)Nc3ccc(C)cc3)C2)c1` (configuration not stated) belongs 898 s; to `CCn1cc(CCN2CCN(S(=O)(=O)c3ccc(C)cc3)CC2)c2cccnc21`, 652 s.

These data come from the METLIN SMRT retention time set (Domingo-Almenara et al. 2019).
